Tested on: Plasmodium berghei
Assay: Luciferase/luciferin-expressing antifolate-resistant parasites were used to infect a culture of HepG2 cells that were pre-incubated with compounds. Infected hepatocytes emit light due to the luciferase reaction. Assay results are presented as the percent inhibition of light emission compared to control. […]
Format: functional
Conditions: sporozoite; for IC50: read-out: LUCIFERASE INFECTION ASSAY - IC50; for IC90: read-out: LUCIFERASE INFECTION ASSAY - IC90

SMILES	IC50 [µM]	IC90 [µM]
CNc1ccccc1C(C)(C)c1cc(-c2ccc(F)cc2)no1	8.62	> 10
Cc1ccc(C(C)C)c(OCc2ccc(-c3nnco3)cc2)c1	> 10	> 10
COc1cc(C(=O)c2c(C)c(CCC#N)n3ccccc23)cc(OC)c1OC	2	6.92
Cc1ccc(C(C)C)cc1OCc1nnc2n(C)c(=O)c3ccccc3n12	> 10	> 10
Cc1ccc2nc(CN3CCCCC3c3nc4ccccc4s3)cn2c1 (stereo not given)	> 10	> 10
CC(=O)c1c(C)[nH]c(C(=O)Nc2nc(-c3ccc4c(c3)CCC4)cs2)c1C	6.23	> 10
O=c1c2c(-c3ccccc3)csc2nc2c3ccccc3c(NCCO)nn12	> 10	> 10
CCOC(=O)c1sc2c(c1C)C(c1ccccc1)C1C(=O)CC(C)(C)CC1=N2 (stereo not given)	1.87	4.4
Cc1nc(Sc2nnc3ccccn23)c2c3c(sc2n1)CCCC3	2.94	3.52
Cc1ccccc1CN1CCN(c2cc(=O)n3ccccc3n2)CC1	6.42	> 10
Cc1cc(C(=O)NCCNC(=O)c2cccn2C)c2nc3n(c2n1)CCCCC3	> 10	> 10
CC(=O)N(c1ccc(Cl)c(Cl)c1)c1nc(CN2CCCCCC2)cs1	4.55	9.28
COc1ccc(/C=C/c2nc3cc(-c4nc5ccccc5[nH]4)ccc3s2)cc1	1.84	4.48
Cc1cc2oc3c(c2cc1NS(=O)(=O)c1cccs1)CC(C)CC3 (stereo not given)	> 10	> 10
COc1ccc(-c2nc(NC(=O)c3cnc(C)cn3)sc2C)cc1	> 10	> 10
CC(c1ccc(-n2cncn2)cc1)N(C)c1ccc2nnnn2n1 (stereo not given)	> 10	> 10
Cc1ccc(C)c(OCCCN2C(=O)NC(Cc3c[nH]c4ccccc34)C2=O)c1 (stereo not given)	> 10	> 10
COc1ccc(-c2cc(NC(=O)c3cc(Cl)c(Cl)[nH]3)ccc2OC)cc1	3.49	4.33
CCCn1c(SCc2ccccc2F)n[nH]c1=O	> 10	> 10
O=C(COC(=O)CCC1CCCC1)Nc1ncc(C(F)(F)F)cc1Cl	> 10	> 10
Cc1ccc(COC(=O)c2ccccc2S(=O)(=O)N2CCCCC2)cc1	9.7	> 10
CC1CCN(Cc2c(-c3ccccc3)n(C)c3ccccc23)CC1	> 10	> 10

SMILES	IC50 [µM]	IC90 [µM]
CCc1ccc(C(NCC(=O)NC(=O)NC)C(C)C)cc1 (stereo not given)	> 10	> 10
Cc1cc(CNC(C)c2cc(F)c(Cl)cc2Cl)cc(C)c1O (stereo not given)	> 10	> 10
Cc1[nH]c2ccc(C(=O)Nc3nc(CN4CCCC(C)C4)cs3)cc2c1C (stereo not given)	> 10	> 10
COc1ccc(C(=O)Nc2ccc(N3CCOCC3)cc2)cn1	> 10	> 10
Cc1ccc(C2(C(F)(F)F)NC(=O)c3ccc(OC(C)C)cc3O2)cc1 (stereo not given)	3.99	> 10
Cc1cccc(COC(=O)C2CCN(C3=NS(=O)(=O)c4ccccc43)CC2)c1	> 10	> 10
Cc1nn(CC(C)C)c(C)c1CC(=O)NCc1ccccc1Cn1cccn1	> 10	> 10
Cc1ccc(C)c(OCCSc2ccc(C(=O)NC3CC3)cn2)c1	3.35	3.93
CCC(C)(C)C1CCC(NC(=O)c2ccc(OC)c(OC)c2OC)CC1 (stereo not given)	> 10	> 10
O=C(NC1CC1)N1CCN(S(=O)(=O)c2ccc3c(c2)OCCCO3)CC1	> 10	> 10
O=C(c1cccc(-c2nn[nH]n2)c1)N1CCC2CCCCC2C1 (stereo not given)	> 10	> 10
COc1ccc(N(CCC(N)=O)CC(=O)NC(C)c2ccccc2OC)cc1 (stereo not given)	> 10	> 10
O=C(Cc1cc(Cl)c2c(c1)OCCCO2)NCc1ccco1	6.35	> 10
OC(CNCC1COc2ccccc2C1)COc1ccc(Cl)cc1Cl (stereo not given)	> 10	> 10
O=C(CCSc1nc(NC2CC2)c2ccccc2n1)N1CCc2ccccc21	3.46	7.86
CCN(C(=O)COc1ccc(-c2ccccc2)cc1)c1cccc2ccccc12	> 10	> 10
Cc1cc2ccccn2c1C(=O)c1cc2c(C)nn(-c3ccccc3)c2s1	> 10	> 10
CNS(=O)(=O)c1cc(NS(=O)(=O)/C=C/c2ccccc2)ccc1C	> 10	> 10
COc1ccc(/C=C/c2nc3cc(C)c(C)cc3s2)c(OC)c1OC	4.27	8.68
COCCN(CCOC)C(=O)CSc1nnc(/C=C/c2ccccc2)[nH]1	> 10	> 10
CCOc1cc(C(=O)NCCNC(=O)C(C)C)cc(OCC)c1OCC	> 10	> 10
COC(=O)CCSc1nnc(Nc2ccc(OC(F)(F)F)cc2)s1	> 10	> 10

SMILES	IC50 [µM]	IC90 [µM]
CC(Nc1ccc(OC(F)(F)F)cc1)C(=O)Nc1ccc(C#N)c(Cl)c1 (stereo not given)	8.9	> 10
COC(=O)c1c(C)[nH]c(-c2csc(N3CCCCC3)n2)c1C	> 10	> 10
COc1ccc(C2CC(CCc3c[nH]c4ccccc34)=NN2c2ccccc2)cc1 (stereo not given)	3.35	3.8
O=C(C1CCCCC1)N1N=C2/C(=C/c3ccco3)CCCC2C1c1ccco1 (stereo not given)	> 10	> 10
C(=C(c1nc2ccccc2s1)c1nc2ccccc2s1)c1ccccn1	> 10	> 10
O=c1c2c(-c3ccccc3)csc2nc2c3ccccc3c(Cl)nn12	> 10	> 10
C[C@H](NC(N)=O)C(=O)OCC(=O)Nc1cccc(C#N)c1	> 10	> 10
Cc1cc(C(=O)CN2C(=O)NC(C)(c3ccc(C(C)(C)C)cc3)C2=O)c(C)n1C (stereo not given)	> 10	> 10
Cc1ccc(Cn2c3nc(C#N)c(C#N)nc3c3c(=O)nc(C)[nH]c32)cc1	> 10	> 10
COc1ccc(C(NCc2cccc3ccccc23)C2CC2)cc1 (stereo not given)	> 10	> 10
O=C(CSc1nnnn1CC1CCCO1)NCc1ccc2c(c1)OCO2 (stereo not given)	> 10	> 10
COc1ccc(-n2ccnc2SCc2nc(N)c3ccccc3n2)cc1	> 10	> 10
COc1ccc(C(=O)C2CCN(C(=O)c3cnc(C)cn3)CC2)cc1	> 10	> 10
Cc1ccc(-n2c(C)cc(/C=C3\N=C4CCCCCN4C3=O)c2C)c(C)c1	> 10	> 10
COc1cccc(-c2csc(-c3nnc4n3-c3ccccc3SC4)n2)c1	2.69	3.9
CCOc1ccc(Oc2ccc(S(=O)(=O)NC(C)c3ccncc3)cc2)cc1 (stereo not given)	0.559	4.85
CSc1nnc(Sc2nc(-c3cccnc3)nc3ccccc23)s1	> 10	> 10
CC(C)c1ccccc1NC(=O)COC(=O)C(C)(C)Oc1ccc(Cl)cc1	> 10	> 10
Cc1cccc(-c2nc(-c3cc(C)n(-c4nnc[nH]4)c3C)cs2)c1	9.67	> 10
Cn1nnnc1Sc1ncnc2sc3c(c12)CCCC3	> 10	> 10
C=CCn1c(COc2ccccc2F)nnc1Sc1cc(C)nc2ncnn12	> 10	> 10

Reference: ChEMBL document CHEMBL4483862, “Open-source discovery of chemical leads for next-generation chemoprotective antimalarials” (2018)
